# A melting point compilation (Tetko et al.; mined from patent text by program, amines drawn as free bases though some values may be those of a salt)
row,SMILES,melting point
1,CC(=O)OCc1c(O)cccc1[N+](=O)[O-],113 to 114 °C
2,CS(=O)(=O)c1ccc(-c2cc(=O)n(CC3CCCC3)nc2-c2ccc(F)cc2)cc1,76 to 77 °C
3,COc1c(Cl)ccc(-c2cc(N)c(Cl)c(C(=O)NOCc3ccc(C)cc3)n2)c1F,171 to 174 °C
4,CN(C)C1(c2ccccc2)CCC(=CC(=O)N2CCC(c3c[nH]c4ccc(Cl)cc34)CC2)CC1 (centres undefined),115 to 119 °C
5,COc1cc(OC)c(-c2cc3ccccc3s2)cc1/C=C/C(=O)c1ccc(Nc2c(N)c(=O)c2=O)cc1,> 260 °C
6,Cc1cc2cc(CN3CCCC3)cnc2cc1NC(=O)c1ccc(-c2ccc(F)c(F)c2)cc1,220 to 223 °C
7,CC(C)(C)OC(=O)N[C@H](Cc1ccc(CC(F)(F)C(F)(F)F)cc1)[C@@H](O)c1cccc(Cl)c1 (racemic),156 to 157 °C
8,O=C(O)CCC(=NO)c1ccc2c3c(oc2c1)CCCC3,148 to 150 °C
9,Cc1nc2sc3ccccc3n2n1,75 to 76 °C
10,COC(=O)Cc1ccc(OCc2ccc3ccccc3n2)c(OC)c1,69 °C
11,Cc1ccc(S(=O)(=O)Oc2ccc(S(=O)(=O)c3c(C(C)C)cn4ncccc34)cc2)cc1,149 °C
12,N#Cc1c(Cl)ccnc1Cl,107 to 109 °C
13,O=C1CCCN1Cc1ccc(F)cc1,37 to 38 °C
14,CCCOc1c(I)cc(C(=O)CCC(=O)c2cc(OC)c(OC)c(OC)c2)cc1OC,120 to 121 °C
15,Cc1c(N)cccc1-c1cn(C)c(=O)c(Nc2ccc(C(=O)N3CCOCC3)cc2)n1,274 to 275 °C
16,C=C(C)CC(O)(C(Nc1ccc(F)c2nc(C)ncc12)c1ccc(Cl)cc1OC)C(F)(F)F (centres undefined),110 °C
17,Nc1nc2c(ncn2CCOCP(=O)(O)O)c(=O)[nH]1,> 260 °C
18,Cn1cc(-c2ccc(F)cc2)c(C(=O)O)n1,146 to 147 °C
19,O=C(Nc1ccc2nc(S)[nH]c2c1)C(=O)N1CCC(Cc2ccccc2)CC1,277 to 281 °C
20,CC(C)(C)OC(=O)[C@H](CSSC[C@H](NC(=O)OCc1ccccc1)C(=O)OC(C)(C)C)NC(=O)OCc1ccccc1,77 to 78 °C
21,COC(=O)c1ccccc1-n1c(CCl)nc2ccc(Br)cc2c1=O,235 to 237 °C
22,Cc1cccc(C2=CCN(CCCCCC(=O)N3Cc4ccccc4C3)CC2)c1C#N,71 °C

row,SMILES,melting point
1,CC(=O)N1c2ccc(Cl)cc2CC1C#N (centres undefined),140 to 142 °C
2,O=C(NC/C=C\COc1cc(CN2CCCCC2)ccn1)c1ccc(Cl)s1,75 to 77 °C
3,CN(CCc1ccc(NC(N)=S)cc1)Cc1ccccc1,119 to 122 °C
4,CC(=O)OC(C)(C)C(=O)Nc1ccc(Sc2ccc(N)cc2)cc1Cl,130 to 132 °C
5,CCOC(=O)C(C)(C)Oc1ccc(-c2ccc(CCNC(=O)c3cccc(OC)c3OC)cc2)cc1,< 20 °C
6,O=C1CCc2c(Cl)sc(-c3ccncc3)c21,163 to 165 °C
7,Cc1cn(Nc2ccncc2F)c2ccc(OCc3ccccc3)cc12,210 to 213 °C
8,CCCCCCC(O)CCCCCCCCCCC(=O)NCCNCCO (centres undefined),102 °C
9,C[C@@H]1S[C@@H](C(=O)Nc2ccc(CC3SC(=O)NC3=O)cc2)Cc2cc3c(cc2C1=O)OCO3 (some centres undefined),139 to 144 °C
10,Cn1ncc2c1-c1c(Oc3ccc(OCc4ccc5ccccc5n4)cc3)sc(C(=O)O)c1CC2,214 to 215 °C
11,COc1ccc2c(c1)c(CCc1cc(=O)n(C3CCCCC3)[nH]1)c(C)n2C(=O)c1ccc(Cl)cc1,110 °C
12,CC(Nc1ccc([N+](=O)[O-])cc1)c1ccccc1 (centres undefined),95 to 96 °C
13,NNc1ccc(C(=O)c2ccccc2)cc1[N+](=O)[O-],163 to 164 °C
14,CCCCN1C(=O)NC(=C(C)C)C1=O,130 °C
15,CCc1cn(C2CC(O)C(CNC(=O)CS(=O)(=O)c3ccccc3)O2)c(=O)[nH]c1=O (centres undefined),218 to 219 °C
16,Cc1ccc(OC(=O)C=Cc2ccc([N+](=O)[O-])cc2)cc1,168 to 170 °C
17,CNC(=O)n1cc2c(n1)-c1ccc(Cl)cc1C(c1ccccc1F)=NC2,192 to 193 °C
18,FC(F)(F)COc1ccccc1N1CCNCC1,107 to 108 °C
19,CC(=O)SCC(=Cc1ccc(-c2ccccc2)cc1)C(=O)NCCC(=O)OCc1ccccc1,76 °C
20,CCCn1cc(NC(=O)C(N)c2ccc3c(c2)C(C)(C)CCC3(C)C)cc1C(=O)OC (centres undefined),152 to 153 °C
21,COC(COC(=O)C1=C(C)NC2=C(C(=O)CN(Cc3ccccc3)C2)C1c1c(F)c(F)c(F)c(F)c1F)c1ccccc1 (centres undefined),220 to 222 °C

# Continued, values first:
row,melting point,SMILES
1,159 to 160 °C,O=C(NCCO)c1cccc(-c2ccc3ccn(-c4ccc(Cl)cc4Cl)c3n2)c1
2,> 260 °C,CCOC(=O)c1cnc2ccc(C(F)(F)F)cc2c1O
3,176 to 178 °C,COc1nn(-c2cccc(Nc3nccs3)c2)c(=O)n(Cc2ccc(Cl)cc2)c1=O
4,87 to 88 °C,CCC(O)CN1CCC(c2noc3cc(F)ccc23)CC1 (centres undefined)
5,96 to 98.5 °C,CCc1nnc(C(CCN2CC3CCC2CC3)(c2ccccc2)c2ccccc2)o1
6,134 to 138 °C,NCc1cccc(OCCC(=O)O)c1
7,88 °C,COC(C)(OC)c1ccc(C2(O)CCC(C)(C)CC2)cc1
8,121 to 122 °C,COC(=O)c1cc(NC(C)C)c2cc(Cc3ccc(F)cc3)cnc2c1O
9,63 to 65 °C,CC(C)(C)OC(=O)NCC(=O)c1ccccc1
10,193 to 194 °C,CC1(C)CN(c2ncc(C(=O)N(CC3CC3)c3cccc(C(F)(F)F)c3)c(N)n2)C(=O)N1
11,187 °C,COc1cccc(C2(O)c3cccc(O)c3C(=O)c3c(O)cccc32)c1
12,140 to 160 °C,N#Cc1c(N2CCN(C(=O)c3ccc4c(c3)OCO4)CC2)c2ccccc2n(Cc2ccc(F)cc2)c1=O
13,49 to 50 °C,CCOC(=O)C=C(C)C=CC=O
14,99 to 100 °C,COc1cc(Nc2c(C#N)cnc3cc(/C=C/CCCCN4CCOCC4)c(OC)cc23)c(Cl)cc1Cl
15,147 °C,Cc1ccc(-c2cncn2-c2ccc(S(C)(=O)=O)cc2)cc1F
16,119 to 122 °C,N=C(N)NCCOc1ccc2c(c1)CC(CCC(=O)O)C(=O)N2 (centres undefined)
17,133 to 136 °C,COP(=O)(CN[C@@H](Cc1ccc(-c2ccccc2)cc1)C(=O)O)OC
18,69 to 74 °C,CCCCCCCCNC(=N)NC#N
19,142 °C,OC[C@@H]1CN(C(c2ccccc2)(c2ccccc2)c2ccccc2)CCO1
20,125 to 129 °C,CC(C)(C)OC(=O)NC(CCO)C(=O)OC(c1ccccc1)c1ccccc1 (racemic)
21,67 to 69 °C,CO/C=C(/C(=O)OC)c1ccccc1C=O
22,120 °C,CCCCN(CCCC)C(=O)On1c(-c2ccccc2)nc2c3ccc4ccccc4c3ccc21
23,79 to 81 °C,Cn1ccc(CNC(=O)c2ccnc(N3CCN(Cc4ccc(F)cc4)C3=O)c2)n1
24,217 to 219 °C,COC(=O)C1=C(C)NC(=O)N(C)C1c1cccc([N+](=O)[O-])c1 (centres undefined)
25,192 to 193 °C,Cc1cc(C#N)sc1-c1ccc2c(c1)C(C)(C)C(=O)N2
26,305 to 307 °C,CN1CCN(c2cc(C(=O)Nc3ccc4c(c3)-c3c(c(C(N)=O)nn3-c3ccc5c(c3)OCO5)CC4)c(Cl)cn2)CC1
